Activity calls are given as the source filed them. No cut-off for these calls is given here.
Assays:
[1] = system: Mus musculus; assay: Acute toxicity in Kunming mouse assessed as poisoning symptoms at 1000 to 1500 mg/kg, po administered as single dose measured up to 2 weeks post dose; type: organism-based; settings: in vivo, 336 h
[2] = target: High affinity cAMP-specific and IBMX-insensitive 3',5'-cyclic phosphodiesterase 8A (Homo sapiens, UniProt O60658); assay: Inhibition of PDE8A1 (480 to 820 residues) (unknown origin) using [3H]cGMP or [3H]cAMP as substrate after 15 mins by liquid scintillation counting method
Chain of High affinity cAMP-specific and IBMX-insensitive 3',5'-cyclic phosphodiesterase 8A (O60658 whole entry, the tested form may be a part): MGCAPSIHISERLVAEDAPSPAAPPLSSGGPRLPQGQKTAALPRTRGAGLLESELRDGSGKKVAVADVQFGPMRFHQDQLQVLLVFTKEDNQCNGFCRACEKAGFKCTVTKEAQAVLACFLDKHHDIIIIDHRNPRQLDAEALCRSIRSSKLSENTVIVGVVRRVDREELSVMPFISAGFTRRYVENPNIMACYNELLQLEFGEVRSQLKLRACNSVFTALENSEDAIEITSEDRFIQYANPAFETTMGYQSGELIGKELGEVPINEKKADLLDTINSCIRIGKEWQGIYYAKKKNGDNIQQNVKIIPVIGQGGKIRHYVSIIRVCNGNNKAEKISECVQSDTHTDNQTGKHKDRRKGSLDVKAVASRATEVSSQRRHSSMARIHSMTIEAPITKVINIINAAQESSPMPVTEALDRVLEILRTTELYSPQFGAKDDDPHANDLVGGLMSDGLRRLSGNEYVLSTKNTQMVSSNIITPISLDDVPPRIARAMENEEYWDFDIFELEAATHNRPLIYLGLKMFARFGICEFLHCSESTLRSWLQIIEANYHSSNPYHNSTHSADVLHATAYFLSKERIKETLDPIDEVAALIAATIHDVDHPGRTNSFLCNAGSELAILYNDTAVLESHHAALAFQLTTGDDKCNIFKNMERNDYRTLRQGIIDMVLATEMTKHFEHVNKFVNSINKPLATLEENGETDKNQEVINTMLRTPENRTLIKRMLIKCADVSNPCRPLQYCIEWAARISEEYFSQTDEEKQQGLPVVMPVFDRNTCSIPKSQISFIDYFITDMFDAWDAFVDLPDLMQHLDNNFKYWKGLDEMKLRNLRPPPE

[3] = target: Dual specificity calcium/calmodulin-dependent 3',5'-cyclic nucleotide phosphodiesterase 1B (Homo sapiens, UniProt Q01064); assay: Inhibition of PDE1B (10 to 487 residues) (unknown origin) expressed in Escherichia coli BL21(DE3) using [3H]cAMP or [3H]cGMP as substrate after 15 mins by liquid scintillation counting method
Chain of Dual specificity calcium/calmodulin-dependent 3',5'-cyclic nucleotide phosphodiesterase 1B (Q01064 whole entry, the tested form may be a part): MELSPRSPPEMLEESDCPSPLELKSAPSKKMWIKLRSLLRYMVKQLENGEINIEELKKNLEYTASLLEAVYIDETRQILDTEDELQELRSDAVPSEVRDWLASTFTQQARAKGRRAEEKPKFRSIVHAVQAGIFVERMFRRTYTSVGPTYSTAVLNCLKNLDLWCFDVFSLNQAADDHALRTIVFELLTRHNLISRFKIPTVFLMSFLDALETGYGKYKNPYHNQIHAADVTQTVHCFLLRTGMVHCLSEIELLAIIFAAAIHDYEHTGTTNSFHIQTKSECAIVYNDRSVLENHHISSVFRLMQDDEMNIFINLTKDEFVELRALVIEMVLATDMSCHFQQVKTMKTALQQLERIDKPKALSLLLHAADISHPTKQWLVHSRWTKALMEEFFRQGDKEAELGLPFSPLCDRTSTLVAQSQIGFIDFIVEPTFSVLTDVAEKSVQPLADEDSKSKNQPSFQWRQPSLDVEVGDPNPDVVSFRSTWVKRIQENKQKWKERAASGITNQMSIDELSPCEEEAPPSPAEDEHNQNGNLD

[4] = system: Rattus norvegicus; assay: Reduction in MCT-induced increase in right ventricle hypertrophy index in Wistar rat model of monocrotaline pulmonary arterial hypertension at 5 mg/kg, po for 3 weeks; type: functional, organism-based
[5] = Half life in Sprague-Dawley rat at 5 mg/kg, po by LC-MS/MS analysis; type: ADME, organism-based; settings: in vivo
[6] = Apparent clearance in rat liver microsomes at 0.5 uM; type: ADME, microsome; settings: read-out: CLH(app)
[7] = target: High affinity cGMP-specific 3',5'-cyclic phosphodiesterase 9A (Homo sapiens, UniProt O76083); assay: Inhibition of PDE9A2 (181 to 506 residues) (unknown origin) expressed in Escherichia coli BL21(DE3) using [3H]cGMP or [3H]cAMP as substrate after 15 mins by liquid scintillation counting method
Chain of High affinity cGMP-specific 3',5'-cyclic phosphodiesterase 9A (O76083 whole entry, the tested form may be a part): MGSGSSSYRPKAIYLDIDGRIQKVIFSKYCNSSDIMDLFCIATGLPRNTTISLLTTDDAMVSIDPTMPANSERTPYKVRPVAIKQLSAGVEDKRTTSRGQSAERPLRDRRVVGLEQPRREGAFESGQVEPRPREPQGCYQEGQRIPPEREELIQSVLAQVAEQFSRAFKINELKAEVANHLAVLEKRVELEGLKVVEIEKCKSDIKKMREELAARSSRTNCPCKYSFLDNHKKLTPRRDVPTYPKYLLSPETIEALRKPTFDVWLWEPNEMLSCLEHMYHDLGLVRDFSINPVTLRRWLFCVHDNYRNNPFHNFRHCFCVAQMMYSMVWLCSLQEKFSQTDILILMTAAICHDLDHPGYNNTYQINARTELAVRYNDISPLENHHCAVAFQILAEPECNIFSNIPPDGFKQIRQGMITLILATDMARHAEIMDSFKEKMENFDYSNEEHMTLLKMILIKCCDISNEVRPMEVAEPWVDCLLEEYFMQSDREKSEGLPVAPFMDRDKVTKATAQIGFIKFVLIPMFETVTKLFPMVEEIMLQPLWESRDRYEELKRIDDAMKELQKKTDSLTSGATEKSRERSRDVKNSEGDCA

[8] = target: T1, Cytochrome P450 2C8 (Homo sapiens, UniProt P10632); assay: Inhibition of CYP2C8 in human microsomes in presence of NADPH; type: ADME
T1 sequence (P10632 whole entry): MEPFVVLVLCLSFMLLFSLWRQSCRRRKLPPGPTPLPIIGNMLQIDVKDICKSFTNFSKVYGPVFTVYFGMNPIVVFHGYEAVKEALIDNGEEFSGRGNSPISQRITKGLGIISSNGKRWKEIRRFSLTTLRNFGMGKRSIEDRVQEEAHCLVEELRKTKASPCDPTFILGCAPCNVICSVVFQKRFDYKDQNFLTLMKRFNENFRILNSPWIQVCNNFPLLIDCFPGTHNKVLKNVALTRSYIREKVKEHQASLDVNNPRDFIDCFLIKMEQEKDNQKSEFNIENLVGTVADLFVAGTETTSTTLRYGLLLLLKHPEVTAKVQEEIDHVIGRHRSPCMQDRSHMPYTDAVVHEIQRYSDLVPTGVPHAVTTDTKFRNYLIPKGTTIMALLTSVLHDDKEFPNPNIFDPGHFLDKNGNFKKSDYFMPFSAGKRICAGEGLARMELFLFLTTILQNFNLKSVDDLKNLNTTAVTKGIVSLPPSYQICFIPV

[9] = system: Mus musculus; assay: Acute toxicity in Kunming mouse assessed as mortality at 1000 to 1500 mg/kg, po administered as single dose measured up to 2 weeks post dose; type: organism-based; settings: in vivo, 336 h
[10] = target: Cytochrome P450 2C9 (Homo sapiens, UniProt P11712); assay: Inhibition of CYP2C9 in human microsomes in presence of NADPH; type: ADME
Chain of Cytochrome P450 2C9 (P11712 whole entry, the tested form may be a part): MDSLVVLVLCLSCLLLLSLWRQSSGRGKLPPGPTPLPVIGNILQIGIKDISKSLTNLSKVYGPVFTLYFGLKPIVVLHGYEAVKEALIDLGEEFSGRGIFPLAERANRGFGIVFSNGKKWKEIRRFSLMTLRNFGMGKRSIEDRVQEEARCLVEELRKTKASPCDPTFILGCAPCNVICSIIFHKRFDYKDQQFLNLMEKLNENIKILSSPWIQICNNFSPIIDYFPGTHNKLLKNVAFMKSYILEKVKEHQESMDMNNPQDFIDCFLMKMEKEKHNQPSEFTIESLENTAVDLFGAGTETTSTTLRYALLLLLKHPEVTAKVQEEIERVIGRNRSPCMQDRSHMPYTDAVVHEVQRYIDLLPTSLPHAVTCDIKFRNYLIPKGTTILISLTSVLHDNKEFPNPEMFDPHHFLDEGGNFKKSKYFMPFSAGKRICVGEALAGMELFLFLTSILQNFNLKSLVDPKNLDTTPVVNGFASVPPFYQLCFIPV

[11] = target: cGMP-inhibited 3',5'-cyclic phosphodiesterase 3A (Homo sapiens, UniProt Q14432); assay: Inhibition of PDE3A (679 to 1087 residues) (unknown origin) expressed in Escherichia coli BL21(DE3) using [3H]cAMP or [3H]cGMP as substrate after 15 mins by liquid scintillation counting method
Chain of cGMP-inhibited 3',5'-cyclic phosphodiesterase 3A (Q14432 whole entry, the tested form may be a part): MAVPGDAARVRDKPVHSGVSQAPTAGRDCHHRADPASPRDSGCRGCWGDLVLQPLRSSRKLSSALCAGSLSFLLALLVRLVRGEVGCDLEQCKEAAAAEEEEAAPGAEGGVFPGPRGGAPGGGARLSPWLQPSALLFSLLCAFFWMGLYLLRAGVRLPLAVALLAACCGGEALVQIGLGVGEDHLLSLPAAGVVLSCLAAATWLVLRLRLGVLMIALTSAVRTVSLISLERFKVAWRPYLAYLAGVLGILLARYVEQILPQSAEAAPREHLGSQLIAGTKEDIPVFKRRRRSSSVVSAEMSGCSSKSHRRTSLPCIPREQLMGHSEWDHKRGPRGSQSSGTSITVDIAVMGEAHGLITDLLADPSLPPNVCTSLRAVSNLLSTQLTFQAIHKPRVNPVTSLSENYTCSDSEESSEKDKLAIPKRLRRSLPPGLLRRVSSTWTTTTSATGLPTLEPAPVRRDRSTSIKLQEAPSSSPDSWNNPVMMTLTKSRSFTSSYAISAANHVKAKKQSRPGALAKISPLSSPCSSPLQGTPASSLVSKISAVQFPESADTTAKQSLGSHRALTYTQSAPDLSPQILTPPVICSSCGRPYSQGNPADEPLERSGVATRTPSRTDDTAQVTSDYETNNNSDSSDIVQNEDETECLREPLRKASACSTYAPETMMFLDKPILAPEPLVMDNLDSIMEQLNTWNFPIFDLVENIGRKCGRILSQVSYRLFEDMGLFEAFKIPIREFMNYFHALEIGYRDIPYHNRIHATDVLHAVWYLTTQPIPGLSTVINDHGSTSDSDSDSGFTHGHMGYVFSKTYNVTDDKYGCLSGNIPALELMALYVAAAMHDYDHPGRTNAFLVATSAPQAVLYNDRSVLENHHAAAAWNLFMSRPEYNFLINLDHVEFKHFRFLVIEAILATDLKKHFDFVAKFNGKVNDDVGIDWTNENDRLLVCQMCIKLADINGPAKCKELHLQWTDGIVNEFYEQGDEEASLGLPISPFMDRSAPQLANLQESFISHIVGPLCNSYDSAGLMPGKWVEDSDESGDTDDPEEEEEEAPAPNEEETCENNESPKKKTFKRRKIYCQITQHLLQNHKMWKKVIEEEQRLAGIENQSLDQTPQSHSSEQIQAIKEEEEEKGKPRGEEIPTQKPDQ

[12] = AUC (0 to infinity) in Sprague-Dawley rat at 5 mg/kg, po by LC-MS/MS analysis; type: ADME, organism-based; set-up: dose 5 mg/kg, time infinity, route oral; settings: in vivo
[13] = system: Rattus norvegicus; assay: Inhibition of hypertrophic response in Wistar rat model of monocrotaline pulmonary arterial hypertension assessed as reduction of MCT-induced increase in small pulmonary artery wall thickness at 5 mg/kg, po for 3 weeks; type: functional, organism-based

In the case of O=c1c2ccccc2oc2c(Cc3ccc4c(c3)OCO4)[nH]c(-c3nccs3)c12, the Activity [1] is reported as “Non-Toxic”, the IC50 [2] is reported as 6.22 µM and the IC50 [3] is reported as over 10 µM. The Activity [4] was “Active”, the half-life [5] was 5.17 h and the CLint scaled at 0.5 µM [6] was 101 mL/min/kg. For the same compound, the IC50 [7] was over 10 µM, the IC50 [8] was over 25 µM and the Activity [9] was “Non-Toxic”. It also gave an IC50 [10] of over 25 µM, an IC50 [11] of over 10 µM and an AUC(0-inf) [12] of 2030 ng·h/mL. The inhibition [13] was “Active”.
